Laboratory results from USRE48711E1, “Apoptosis signal-regulating kinase inhibitors” (Gilead Sciences, Inc., priority 2009, dated 2021).

Biological target: ASK1 (Apoptosis Signal-Regulating Kinase 1) (Homo sapiens (Human), UniProt Q99683)
Experiment: ASK1 (Apoptosis Signal-Regulating Kinase 1) TR-FRET Kinase Assay (Biochemical IC50)
Settings: TR-FRET, biotin-MBP substrate, 20 min pre-incubation, ATP added as 300 μM solution

ASK1 (Apoptosis Signal-Regulating Kinase 1), sequence (Q99683 649-946): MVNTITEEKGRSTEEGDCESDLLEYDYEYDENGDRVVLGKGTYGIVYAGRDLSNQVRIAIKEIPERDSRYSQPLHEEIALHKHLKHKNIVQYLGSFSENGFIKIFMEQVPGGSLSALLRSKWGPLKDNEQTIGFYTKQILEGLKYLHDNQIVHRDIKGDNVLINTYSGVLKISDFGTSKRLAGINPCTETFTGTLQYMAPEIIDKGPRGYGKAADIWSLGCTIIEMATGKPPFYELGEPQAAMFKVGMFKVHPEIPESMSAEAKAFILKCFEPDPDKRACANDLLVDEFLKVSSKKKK

SMILES	IC50 [nM]
O=C(Nc1cccc(-c2nncn2C2CC2)n1)c1cccc(-c2cnc3cccnc3c2)c1 [Example 191, N-(6-(4-cyclopropyl-4H-1,2,4-triazol-3-yl)pyridin-2-yl)-3-(1,5-naphthyridin-3-yl)benzamide]	18
O=C(Nc1cccc(-c2nncn2C2CC2)n1)c1cccc(-n2cnc(C3CC3)c2)c1 [Example 192, 3-(4-cyclopropyl-1H-imidazol-1-yl)-N-(6-(4-cyclopropyl-4H-1,2,4-triazol-3-yl)pyridin-2-yl)benzamide]	7
CC(C)c1cn(-c2cccc(C(=O)Nc3cccc(-c4nncn4C4CC4)n3)c2)cn1 [Example 193, N-(6-(4-cyclopropyl-4H-1,2,4-triazol-3-yl)pyridin-2-yl)-3-(4-isopropyl-1H-imidazol-1-yl)benzamide]	5
O=C(Nc1cccc(-c2nncn2C2CC2)c1)c1cc(-n2cnc3c2CCNC3C(F)(F)F)ccn1 (stereo not drawn) [Example 194, N-(3-(4-cyclopropyl-4H-1,2,4-triazol-3-yl)phenyl)-4-(4-(trifluoromethyl)-4,5,6,7-tetrahydro-1H-imidazo[4,5-c]pyridin-1-yl)picolinamide]	12
O=C(Nc1cccc(-c2nncn2C2CC2)n1)c1cc(-n2cnc3c2CCNC3C(F)(F)F)ccn1 (stereo not drawn) [Example 195, N-(6-(4-cyclopropyl-4H-1,2,4-triazol-3-yl)pyridin-2-yl)-4-(4-(trifluoromethyl)-4,5,6,7-tetrahydro-1H-imidazo[4,5-c]pyridin-1-yl)picolinamide]	8
Cc1c(C(=O)Nc2cccc(-c3nncn3C3CC3)n2)cccc1-n1cnc(C2CC2)c1 [Example 196, 3-(4-cyclopropyl-1H-imidazol-1-yl)-N-(6-(4-cyclopropyl-4H-1,2,4-triazol-3-yl)pyridin-2-yl)-2-methylbenzamide]	1260
Cc1ccc(-n2cnc(C3CC3)c2)cc1C(=O)Nc1cccc(-c2nncn2C2CC2)n1 [Example 197, 5-(4-cyclopropyl-1H-imidazol-1-yl)-N-(6-(4-cyclopropyl-4H-1,2,4-triazol-3-yl)pyridin-2-yl)-2-methylbenzamide]	47
O=C(Nc1cccc(-c2nncn2C2CC2)c1)c1cc(-n2cnc(C(F)(F)C(F)(F)F)c2)ccn1 [Example 198, N-(3-(4-cyclopropyl-4H-1,2,4-triazol-3-yl)phenyl)-4-(4-(perfluoroethyl)-1H-imidazol-1-yl)picolinamide]	19
O=C(Nc1cccc(-c2nncn2C2CC2)n1)c1cc(-n2cnc(C(F)(F)C(F)(F)F)c2)ccn1 [Example 199, N-(6-(4-cyclopropyl-4H-1,2,4-triazol-3-yl)pyridin-2-yl)-4-(4-(perfluoroethyl)-1H-imidazol-1-yl)picolinamide]	9
Cc1ccc(C(=O)Nc2cccc(-c3nncn3C3CC3)n2)cc1-n1cnc(C2CC2)c1 [Example 200, 3-(4-cyclopropyl-1H-imidazol-1-yl)-N-(6-(4-cyclopropyl-4H-1,2,4-triazol-3-yl)pyridin-2-y1)-4-methylbenzamide]	11
O=C(Nc1cccc(-c2nncn2C2CC2)n1)c1cc(-n2cnc(C3CC3)n2)ccn1 [Example 201, 4-(3-cyclopropyl-1H-1,2,4-triazol-1-yl)-N-(6-(4-cyclopropyl-4H-1,2,4-triazol-3-yl)pyridin-2-yl)picolinamide]	14
O=C(Nc1cccc(-c2nncn2C2CC2)c1)c1cc(-n2cnc(C3CC3)n2)ccn1 [Example 202, 4-(3-cyclopropyl-1H-1,2,4-triazol-1-yl)-N-(3-(4-cyclopropyl-4H-1,2,4-triazol-3-yl)phenyl)picolinamide]	17
O=C(Nc1cccc(-c2nncn2C2CC2)c1)c1cc(-n2ncnc2C2CC2)ccn1 [Example 203, 4-(5-cyclopropyl-1H-1,2,4-triazol-1-yl)-N-(3-(4-cyclopropyl-4H-1,2,4-triazol-3-yl)phenyl)picolinamide]	538
CC(C)(O)c1ccc(-c2cccc(C(=O)Nc3cccc(-c4nncn4C4CC4)n3)c2)cn1 [Example 204, N-(6-(4-cyclopropyl-4H-1,2,4-triazol-3-yl)pyridin-2-yl)-3-(6-(2-hydroxypropan-2-yl)pyridin-3-yl)benzamide]	17
O=C(Nc1cccc(-c2nncn2C2CC2)n1)c1cc(F)cc(-n2cnc(C3CC3)c2)c1 [Example 205, 3-(4-cyclopropyl-1H-imidazol-1-yl)-N-(6-(4-cyclopropyl-4H-1,2,4-triazol-3-yl)pyridin-2-yl)-5-fluorobenzamide]	9

Results, then the molecule that gave them:

IC50 [nM]	SMILES
9	O=C(Nc1cccc(-c2nncn2C2CC2)c1)c1cc(-n2cnc(C(O)C(F)(F)F)c2)ccn1 (stereo not drawn) [Example 206, N-(3-(4-cyclopropyl-4H-1,2,4-triazol-3-yl)phenyl)-4-(4-(2,2,2-trifluoro-1-hydroxyethyl)-1H-imidazol-1-yl)picolinamide]
11	O=C(Nc1cccc(-c2nncn2C2CC2)n1)c1cc(-n2cnc(C(O)C(F)(F)F)c2)ccn1 (stereo not drawn) [Example 207, N-(6-(4-cyclopropyl-4H-1,2,4-triazol-3-yl)pyridin-2-yl)-4-(4-(2,2,2-trifluoro-1-hydroxyethyl)-1H-imidazol-1-yl)picolinamide]
5	O=C(Nc1cccc(-c2nncn2C2CC2)n1)c1cccc(-n2cnc(C(O)C(F)(F)F)c2)c1 (stereo not drawn) [Example 208, N-(6-(4-cyclopropyl-4H-1,2,4-triazol-3-yl)pyridin-2-yl)-3-(4-(2,2,2-trifluoro-1-hydroxyethyl)-1H-imidazol-1-yl)benzamide]
7	Cc1cc(C(=O)Nc2cccc(-c3nncn3C3CC3)n2)cc(-n2cnc(C3CC3)c2)c1 [Example 209, 3-(4-cyclopropyl-1H-imidazol-1-yl)-N-(6-(4-cyclopropyl-4H-1,2,4-triazol-3-yl)pyridin-2-yl)-5-methylbenzamide]
9	Cc1ncn(-c2cccc(C(=O)Nc3cccc(-c4nncn4C4CC4)n3)c2)c1C [Example 211, N-(6-(4-cyclopropyl-4H-1,2,4-triazol-3-yl)pyridin-2-yl)-3-(4,5-dimethyl-1H-imidazol-1-yl)benzamide]
9	O=C(Nc1cccc(-c2nncn2C2CC2)n1)c1cccc(-n2cnc3c2CCCC3)c1 [Example 212, N-(6-(4-cyclopropyl-4H-1,2,4-triazol-3-yl)pyridin-2-yl)-3-(4,5,6,7-tetrahydro-1H-benzo[d]imidazol-1-yl)benzamide]
11	Cc1c(C(=O)O)ncn1-c1cccc(C(=O)Nc2cccc(-c3nncn3C3CC3)n2)c1 [Example 213, 1-(3-(6-(4-cyclopropyl-4H-1,2,4-triazol-3-yl)pyridin-2-ylcarbamoyl)phenyl)-5-methyl-1H-imidazole-4-carboxylic acid]
159	C[C@@H](c1ccccc1)n1cnnc1-c1cccc(NC(=O)c2cccc(-n3cnc(C4CC4)c3)c2)n1 [Example 214, (S)-3-(4-cyclopropyl-1H-imidazol-1-yl)-N-(6-(4-(1-phenylethyl)-4H-1,2,4-triazol-3-yl)pyridin-2-yl)benzamide]
30	Cc1cnc(C(=O)Nc2cccc(-c3nncn3C3CC3)n2)cc1-c1ccc(C2CC2)nc1 [Example 215, 6-cyclopropyl-N-(6-(4-cyclopropyl-4H-1,2,4-triazol-3-yl)pyridin-2-yl)-5′-methyl-3,4′-bipyridine-2′-carboxamide]
8	Cc1ncn(-c2cccc(C(=O)Nc3cccc(-c4nncn4[C@@H](C)C(F)(F)F)n3)c2)c1C [Example 216, (S)-3-(4,5-dimethyl-1H-imidazol-1-yl)-N-(6-(4-(1,1,1-trifluoropropan-2-yl)-4H-1,2,4-triazol-3-yl)pyridin-2-yl)benzamide]
14	C[C@@H](c1ccccc1)n1cnnc1-c1cccc(NC(=O)c2cccc(-n3cnc(C4CC4)c3)c2)n1 [Example 217, (S)-3-(4-cyclopropyl-1H-imidazol-1-yl)-N-(6-(4-(1-phenylethyl)-4H-1,2,4-triazol-3-yl)pyridin-2-yl)benzamide]
16	CC(C)n1cnnc1-c1cccc(NC(=O)c2cc(-c3ccc(C4CC4)nc3)ccn2)c1 [Example 219, 6-cyclopropyl-N-(3-(4-isopropyl-4H-1,2,4-triazol-3-yl)phenyl)-3,4′-bipyridine-2′-carboxamide]
61	C[C@@H](c1ccccc1)n1cnnc1-c1cccc(NC(=O)c2cc(-c3ccc(C4CC4)nc3)ccn2)c1 [Example 220, (S)-6-cyclopropyl-N-(3-(4-(1-phenylethyl)-4H-1,2,4-triazol-3-yl)phenyl)-3,4′-bipyridine-2′-carboxamide]
31	O=C(Nc1cccc(-c2nncn2C2CCC2)c1)c1cc(-c2ccc(C3CC3)nc2)ccn1 [Example 221, N-(3-(4-cyclobutyl-4H-1,2,4-triazol-3-yl)phenyl)-6-cyclopropyl-3,4′-bipyridine-2′-carboxamide]
79	C[C@@H](C(=O)OC(C)(C)C)n1cnnc1-c1cccc(NC(=O)c2cc(-c3ccc(C4CC4)nc3)ccn2)c1 [Example 222, (S)-tert-butyl 2-(3-(3-(6-cyclopropyl-3,4′-bipyridine-2′-carboxamido)phenyl)-4H-1,2,4-triazol-4-yl)propanoate]
45	C[C@H](n1cnnc1-c1cccc(NC(=O)c2cc(-c3ccc(C4CC4)nc3)ccn2)c1)C(F)(F)F [Example 223, (S)-6-cyclopropyl-N-(3-(4-(1,1,1-trifluoropropan-2-yl)-4H-1,2,4-triazol-3-yl)phenyl)-3,4′-bipyridine-2′-carboxamide]
13	O=C(Nc1cccc(-c2nncn2C2CC2)n1)c1cc(-c2ccc(C3CC3)nc2)ccc1F [Example 224, N-(6-(4-cyclopropyl-4H-1,2,4-triazol-3-yl)pyridin-2-yl)-5-(6-cyclopropylpyridin-3-yl)-2-fluorobenzamide]
103	O=C(Nc1cccc(-c2nncn2C2CC2)n1)c1cc(-c2ccc(C3CC3)nc2)c2ccccc2n1 [Example 225, N-(6-(4-cyclopropyl-4H-1,2,4-triazol-3-yl)pyridin-2-yl)-4-(6-cyclopropylpyridin-3-yl)quinoline-2-carboxamide]
